This passage reports MIC results from patent publication US20260274892A1, “MACROCYCLIC BROAD SPECTRUM ANTIBIOTICS” (RQx Pharmaceuticals, Inc., priority 2017, published 2026).

For assay [1], the system named is Methicillin Resistant Staphylococcus aureus strain USA 200. In words: Minimum inhibitory concentration (MIC), CLSI broth micro-dilution, S. aureus. The following applies: Staphylococcus aureus, MRSA / USA200; Table 6; MRSA USA 200; cation adjusted Mueller Hinton Broth + 0.002% Tween-80; 35° C., 22 hours. It is filed as cell-based. The procedure, abridged: (§1)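 Antibacterial potency is measured as MIC by the CLSI broth dilution method. Bacteria at OD600 0.0005 in Tween-80-supplemented cation-adjusted Mueller Hinton broth face ten twofold compound dilutions for 22 h at 35° C.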
On the technique in general: In broth dilution the organism is exposed to a series of concentrations in liquid medium.

For assay [2], the system named is Escherichia coli ATCC 25922. As to the kind of experiment: Minimum inhibitory concentration (MIC), CLSI broth micro-dilution, E. coli. It is filed as cell-based. The following applies: Escherichia coli, ATCC25922, 22 h, Table 6, cation adjusted Mueller Hinton Broth + 0.002% Tween-80, 35° C. The procedure, abridged:
as §1

As a reminder, the MIC is the lowest concentration that inhibits growth of the organism. On to `Cc1nc(-c2ccc(OC(C)(C)C)cc2)nc(C)c1C(=O)N[C@@H](CCN)C(=O)N(C)[C@@H]1C(=O)N[C@@H](C)C(=O)N[C@H](C(=O)NCC#N)Cc2ccc(OCCN)c(c2)-c2cc1ccc2OCCN` (racemic) [Compound 342, rac-(8S,11S,14S)-3,18-bis(2-aminoethoxy)-N-(cyanomethyl)-11-methyl-14-[methyl-[rac-(2S)-4-amino-2-[[2-(4-tert-butoxyphenyl)-4,6-dimethyl-pyrimidine-5-carbonyl]amino]butanoyl]amino]-10,13-dioxo-9,12-diazatricyclo[13.3.1.12,6]icosa-1(18),2(20),3,5,15(19),16-hexaene-8-carboxamide], for which the MIC in assay [1] stood at 0.097 µM; in assay [2], 0.39 µM.

As for `Cc1nc(-c2ccc(COC(C)(C)C)cc2)nc(C)c1C(=O)N[C@@H](CCN)C(=O)N(C)[C@@H]1C(=O)N[C@@H](C)C(=O)N[C@H](C(=O)NCC#N)Cc2ccc(OCCN)c(c2)-c2cc1ccc2OCCN` (racemic) [Compound 343, rac-(8S,11S,14S)-3,18-bis(2-aminoethoxy)-N-(cyanomethyl)-11-methyl-14-[methyl-[rac-(2S)-4-amino-2-[[2-[4-(tert-butoxymethyl)phenyl]-4,6-dimethyl-pyrimidine-5-carbonyl]amino]butanoyl]amino]-10,13-dioxo-9,12-diazatricyclo[13.3.1.12,6]icosa-1(18),2(20),3,5,15(19),16-hexaene-8-carboxamide], the minimal inhibitory concentration (MIC) in assay [1] was 0.13 µM; in assay [2], 0.75 µM.

Consider `CCCC1(Oc2ccc(-c3nc(C)c(C(=O)N[C@@H](CCN)C(=O)N(C)[C@@H]4C(=O)N[C@@H](C)C(=O)N[C@H](C(=O)NCC#N)Cc5ccc(OCCN)c(c5)-c5cc4ccc5OCCN)c(C)n3)cc2)CC1` (racemic) [Compound 346, rac-(8S,11S,14S)-3,18-bis(2-aminoethoxy)-N-(cyanomethyl)-11-methyl-14-[methyl-[rac-(2S)-4-amino-2-[[4,6-dimethyl-2-[4-(1-propylcyclopropoxy)phenyl]pyrimidine-5-carbonyl]amino]butanoyl]amino]-10,13-dioxo-9,12-diazatricyclo[13.3.1.12,6]icosa-1(18),2(20),3,5,15(19),16-hexaene-8-carboxamide], for which the figures for the minimum inhibitory concentration (MIC) in assay [1] and in assay [2] were 0.016 µM and 0.13 µM, respectively.

For the compound `CCCCC1(Oc2ccc(-c3nc(C)c(C(=O)N[C@@H](CCN)C(=O)N(C)[C@@H]4C(=O)N[C@@H](C)C(=O)N[C@H](C(=O)NCC#N)Cc5ccc(OCCN)c(c5)-c5cc4ccc5OCCN)c(C)n3)cc2)CC1` (racemic) [Compound 347, rac-(8S,11S,14S)-3,18-bis(2-aminoethoxy)-N-(cyanomethyl)-11-methyl-14-[methyl-[rac-(2S)-4-amino-2-[[2-[4-(1-butylcyclopropoxy)phenyl]-4,6-dimethyl-pyrimidine-5-carbonyl]amino]butanoyl]amino]-10,13-dioxo-9,12-diazatricyclo[13.3.1.12,6]icosa-1(18),2(20),3,5,15(19),16-hexaene-8-carboxamide], the values for the MIC in assay [1] and in assay [2] were 0.047 µM and 0.25 µM, respectively.

On to `Cc1nc(-c2ccc(OC3CCC(C)(C)CC3)cc2)nc(C)c1C(=O)N[C@@H](CCN)C(=O)N(C)[C@@H]1C(=O)N[C@@H](C)C(=O)N[C@H](C(=O)NCC#N)Cc2ccc(OCCN)c(c2)-c2cc1ccc2OCCN` (racemic) [Compound 348, rac-(8S,11S,14S)-3,18-bis(2-aminoethoxy)-N-(cyanomethyl)-11-methyl-14-[methyl-[rac-(2S)-4-amino-2-[[2-[4-(4,4-dimethylcyclohexoxy)phenyl]-4,6-dimethyl-pyrimidine-5-carbonyl]amino]butanoyl]amino]-10,13-dioxo-9,12-diazatricyclo[13.3.1.12,6]icosa-1(18),2(20),3,5,15(19),16-hexaene-8-carboxamide], for which the MIC was found to be 0.023 µM in assay [1] and 0.19 µM in assay [2].

Turning to `Cc1nc(-c2ccc(OC3C[C@H]4CCCC[C@H]4C3)cc2)nc(C)c1C(=O)N[C@@H](CCN)C(=O)N(C)[C@@H]1C(=O)N[C@@H](C)C(=O)N[C@H](C(=O)NCC#N)Cc2ccc(OCCN)c(c2)-c2cc1ccc2OCCN` (mixture of isomers) [Compound 349, rac-(8S,11S,14S)-3,18-bis(2-aminoethoxy)-N-(cyanomethyl)-11-methyl-14-[methyl-[rac-(2S)-4-amino-2-[[4,6-dimethyl-2-[4-[[rac-(3aR,7aS)-2,3,3a,4,5,6,7,7a-octahydro-1H-inden-2-yl]oxy]phenyl]pyrimidine-5-carbonyl]amino]butanoyl]amino]-10,13-dioxo-9,12-diazatricyclo[13.3.1.12,6]icosa-1(18),2(20),3,5,15(19),16-hexaene-8-carboxamide], the MIC turned out to be 0.023 µM in assay [1] and 0.094 µM in assay [2].

On to `Cc1nc(-c2ccc(OC3C[C@@H]4CC[C@H]3C4)cc2)nc(C)c1C(=O)N[C@@H](CCN)C(=O)N(C)[C@@H]1C(=O)N[C@@H](C)C(=O)N[C@H](C(=O)NCC#N)Cc2ccc(OCCN)c(c2)-c2cc1ccc2OCCN` (mixture of isomers) [Compound 350, rac-(8S,11S,14S)-3,18-bis(2-aminoethoxy)-N-(cyanomethyl)-11-methyl-14-[methyl-[rac-(2S)-4-amino-2-[[4,6-dimethyl-2-[4-[rac-(1S,4R)-norboman-2-yl]oxyphenyl]pyrimidine-5-carbonyl]amino]butanoyl]amino]-10,13-dioxo-9,12-diazatricyclo[13.3.1.12,6]icosa-1(18),2(20),3,5,15(19),16-hexaene-8-carboxamide], for which the MIC in assay [1] is 0.016 µM; in assay [2] it was 0.094 µM.

On to `CCCCc1ccc(Oc2nc(C)c(C(=O)N[C@@H](CCN)C(=O)N(C)[C@@H]3C(=O)N[C@@H](C)C(=O)N[C@H](C(=O)NCC#N)Cc4ccc(OCCN)c(c4)-c4cc3ccc4OCCN)c(C)n2)cc1` (racemic) [Compound 354, rac-(8S,11S,14S)-3,18-bis(2-aminoethoxy)-N-(cyanomethyl)-11-methyl-14-[methyl-[rac-(2S)-4-amino-2-[[2-(4-butylphenoxy)-4,6-dimethyl-pyrimidine-5-carbonyl]amino]butanoyl]amino]-10,13-dioxo-9,12-diazatricyclo[13.3.1.12,6]icosa-1(18),2(20),3,5,15(19),16-hexaene-8-carboxamide], for which the MIC in assay [1] was found to be 0.016 µM; in assay [2] it was 1.5 µM.

With `CCCCc1ccc(Oc2nc(C)c(C(=O)N[C@@H](CCN)C(=O)N(C)[C@@H]3C(=O)N[C@@H](C)C(=O)N[C@H](C(=O)NCC#N)Cc4ccc(OCCN)c(c4)-c4cc3ccc4OCCN)c(C)n2)cc1CCCC` (racemic) [Compound 355, rac-(8S,11S,14S)-3,18-bis(2-aminoethoxy)-N-(cyanomethyl)-11-methyl-14-[methyl-[rac-(2S)-4-amino-2-[[2-(3,4-dibutylphenoxy)-4,6-dimethyl-pyrimidine-5-carbonyl]amino]butanoyl]amino]-10,13-dioxo-9,12-diazatricyclo[13.3.1.12,6]icosa-1(18),2(20),3,5,15(19),16-hexaene-8-carboxamide], the results for the minimum inhibitory concentration (MIC) in assay [1] and in assay [2] were 0.094 µM and 4 µM, respectively.
